Laboratory results reported in patent US20060165656A1, “Medicinal preparation having chemotherapeutic encapsulated therein” (priority 2002, published 2006).
Where two headings read alike, the source gives them in different places.

How the values were obtained:
[1] = system: Mouse colon cancer-derived CT-26 cells transplanted in BALB/cAnNCrj male mice; test: In vivo experiment (2): tumor volume and weight, HVJ-E/BLM into the tumor with or without intraperitoneal CDDP; conditions: Day 21, physiological saline into the tumor
[2] = system: mouse colon carcinoma cell CT26; conditions: 30 minutes at 37° C., counted two days later, HCl
Procedure: A microtube containing the sample was centrifuged at 15,000 rpm for 15 minutes at 4° C. to give the HVJ-E vector as a precipitate, and the supernatant was removed. […] Further, 2 μl of 3% Triton-X100 was added thereto to prepare a sample containing Triton-X100 at a final concentration of 0.1%, which was then left on ice for 15 minutes. Thereafter, 500 μl PBS solution was added thereto. The microtube was centrifuged at 15,000 rpm for 15 minutes at 4° C., and the supernatant was removed without removing the precipitate, and 500 μl PBS solution was added again to the precipitate. The microtube was centrifuged again at 15,000 rpm for 15 minutes at 4° C., and the supernatant was removed without removing the precipitate.
The resulting precipitate was suspended in 180 μl PBS, and the resulting sample solution was pipetted in a volume of 30 μl/microtube into 6 microtubes. Five microlitters of protamine sulfate solution prepared at 5 mg/ml and 500 μl DMEM solution (Dulbecco's modified Eagle medium) were added to each tube.
The above sample solution was added to mouse colon carcinoma cell CT26 prepared on a 6-well plate. The plate was kept for 30 minutes in an incubator at 37° C., and then the medium was exchanged with 500 μl medium (DMEM containing 10% FCS). The cells were incubated for 2 days in a CO2 incubator at 37° C. Two days later, the number of viable cells was counted to evaluate the anticancer effect.

Row | Compound | tumor weight ([1]; CDDP 0.2 mg/body i.p.) | average tumor volume ([1]; CDDP 0.2 mg/body once intraperitoneally, 10 mice) | tumor weight ([1]; CDDP 0.4 mg/body i.p.) | average tumor volume ([1]; CDDP 0.4 mg/body once intraperitoneally, 3 mice) | number of viable cells (Mean) ([2]; 1/50 bleomycin group: bleomycin 50 μg/DMEM 500 μl/well) | number of viable cells (Mean) ([2]; 1/500 bleomycin group: bleomycin 5 μg/DMEM 500 μl/well) | number of viable cells (Mean) ([2]; 1/500 bleomycin group: bleomycin 5 μg/DMEM 500 μl/well, listed as Bleomycin) | number of viable cells (Mean) ([2]; 1/5,000 bleomycin group: bleomycin 500 ng/DMEM 500 μl/well) | number of viable cells (Mean) ([2]; 1/5,000 bleomycin group: bleomycin 500 ng/DMEM 500 μl/well, listed as Bleomycin)
1 | [NH2][Pt]([NH2])([Cl])[Cl] [CDDP, cisplatin] | 1619.79 mg | 1720.14 mm^3 | 1164.13 mg | 1367.62 mm^3 | – | – | – | – | –
2 | bleomycin HCl | – | – | – | – | 81800 | 164,600 | 164600 | 196,800 | 196800
